The nature of series [1]: C7 inactivation in H2O2, HPLC. The series is classed as physicochemical. As for the experimental part:
Where indicated, 1 mM ABTS was also present. Components were mixed and, after various incubations times, a 30 μl aliquot was injected onto the HPLC. The mixtures were chromatographed on an octadecyl-silica column using a mobile phase consisting of 60% methanol:40% 0.1 M NaCl and a flow rate of 1 ml/min. […] A third component, with a retention time of 4.8 min, was detectable under some conditions; its appearance and disappearance was monitored but it was not further analyzed. In this system, ABTS and its oxidized product had retention times of 3.4 and 3.1-min, respectively, well resolved from the peaks of interest. Absorbance spectra collected during each run allowed the identity of C7 and salicylaldehyde to be verified. All peaks were integrated based upon their absorbance at 240 nm. The results are expressed as the percentage of maximum peak area. […] For the two putative breakdown products, this is equivalent to the largest peak observed during the course of the ˜2000 sec incubation period.

Series [2] concerns Human dermal fibroblasts (HF cells). Description: Protection against t-butyl hydroperoxide toxicity in human fibroblasts (XTT). The following applies: 80 μM with 0.5 mM t-BHP. The series is classed as cell-based. As for the experimental part:
Human dermal fibroblasts (HF cells) were obtained from the American type tissue Culture Collection at passage 1 and cultured and propagated in a medium (HF medium) consisting of Dulbecco's Modified Eagle's Medium with 4.5 g/l D-glucose, 10% calf serum 4 mM glutamine, 50 units/ml penicillin, and 50 μg/ml streptomycin in a 37° C. humidified incubator equilibrated with 5% CO2. Cells were used at passages 5 or 6 for experiments. For cell protection assays, HF cells were seeded at a density of about 15,000 cells per cm2 onto 96-well culture plates and allowed to grow to confluence. […] After 2 hr., the absorbance at 490 nm was measured in a BioRad (Richmond, Calif.) Model 3550 plate-reader, using a reference wavelength of 655 nm. […] Absorbance measurements for blank wells, containing HF medium and XTT reagent but no cells, were also determined. […] Fresh HF medium was then added and cell viability assessed using the XTT reagent as described above. […]
Cell protection assays were performed as described under Experimental Procedures with salen-manganese complexes administered at the indicated concentrations and t-BHP at 0.5 mM. Cell viability was assessed using the XTT reagent as described and is expressed as the absorbance at 490 nm uncorrected for blank. […]
On the technique in general: Tetrazolium assays rely on reduction of a dye to a coloured formazan, in cell work by metabolically active cells.

The next series has as its system Hippocampal slices. Description: Anoxia in hippocampal slices, EPSP recovery. The series is classed as cell-based, Sprague-Dawley rats. The note with it: C7 50 μM. The source says:
Anoxia in hippocampal slices. […] A glass recording micropipet was positioned in CA1 stratum radiatum to record excitatory postsynaptic potential (EPSPs) generated by electrical stimulation of the Schaffer-commissural pathway by a bipolar stimulation electrode at a frequency of 0.033 Hz. During anoxic episodes, the oxygen supply was replaced with 100% N2 gas. N2 was supplied for 90 seconds following electrical silence after which O2 was reintroduced. Recovery of EPSPs (both slope and amplitude) was recorded for 50 minutes, at which time the final viability of the slices was determined, with viability being defined as the ability of the slice to generate a 3 mV EPSP.

Series [3] concerns Isolated Iron-overloaded Rat Hearts. Description: Isolated iron-overloaded rat hearts submitted to ischemia and reperfusion. As for the experimental part:
Rats received an intramuscular injection of 0.25 ml of an iron-dextran solution (100 g iron hydroxide, 99 g dextran, water up to 11) every third day during a 5-week period to achieve a significant iron overload in cardiac tissue. At the end of this treatment, rats were anesthetized with sodium pentobarbital (40 mg/kg) and heparin (1,000 IU/kg) was administered via a femoral vein. Hearts were then removed and rapidly perfused through the aorta according to the technique described by Langendorff [Langendorff, O., Pflügers Arch. 61: 291, 1895] at a constant flow rate of 11 ml/minute. […] At the end of this period, systolic and diastolic ventricular pressures and heart beat rate (HR) were recorded through a pressure transducer linked to the ventricular balloon. Left Ventricular Developed Pressure (LVDP) was calculated by the difference between systolic and diastolic pressure and the product HR×LVDP was taken as an index of oxygen consumption. […] During this 15 minute reperfusion, heart rate, and diastolic and systolic pressures were monitored. Early ventricular fibrillations were analyzed 1 min. after the start of the reperfusion. […]
Mitochondria were classified into Type A (normal), Type B (swollen, unbroken), and Type C (ruptured membranes). […] The results are expressed as percentages.

Where [4] appears, read: 100 μM C7, 1 mM H2O2, with 1 mM ABTS.

Turning to `[Cl][Mn]1[O]c2ccccc2C=NCCN=Cc2ccccc2[O]1` [Compound C7], the “half life of the C7 peak” value in series [1] (100 μM C7, 1 mM H2O2, pH 8.1, absence of ABTS) is roughly 40 s. Also, in series [1] (setting [4]), the “C7 peak that disappeared rapidly” value is recorded as “about 20%” and the “C7 remaining over the entire ~2000 sec incubation” value is 80%. In addition, the “reduced viability at 80 μM relative to 40 μM together with t-BHP” value in series [2] is listed as “possible synergistic toxicity with t-BHP”. The “protection against anoxia-induced decrease in synaptic response in CA1 (EPSP slope and amplitude)” value with Hippocampal slices is “significant degree of protection”. For the same molecule, the “protection of hearts from ischemia/reoxygenation damage, functionally and structurally” value in series [3] (C7 50 μM) is listed as “effectively protected hearts”. In addition, the “Mitochondria Type B (swollen, unbroken)” value in series [3] (electron microscopy after 15 minute reperfusion) is 15.2#□ %.

(Values after patent publication US6900198B2, “Synthetic catalytic free radical scavengers useful as antioxidants for prevention and therapy of disease” (Eukarion, Inc., priority 1995, dated 2005).)
